Values after ≈ are worked out from the molar mass of the structure shown. Where two headings read alike, the source gives them in different places.
Legend:
Assay type in all cases: cell-based
[1] = system: Staphylococcus aureus (ATCC 29213); experiment: MIC by microbroth dilution, Staphylococcus aureus ATCC 29213; conditions: ATCC29213
Protocol: (§1) Shown below are the microbiological activities of representative compounds of Formula I of the invention. The compounds were tested by the microbroth dilution method (National committee for Clinical Laboratory Standards, 2011, […]-08) and the Minimum Inhibitory Concentration (MIC) was determined.

[2] = system: K. pneumoniae (ATCC 700603); experiment: MIC by microbroth dilution, K. pneumoniae ATCC 700603; conditions: Klebsiella pneumoniae, ATCC700603, Formula I compounds
Protocol: (§2) Shown below are the microbiological activities of representative compounds of Formula I of the invention. The compounds were tested by the microbroth dilution method (National committee for Clinical Laboratory Standards, 2011, M07-08) and the Minimum Inhibitory Concentration (MIC) was determined.
(§3) Analysis of microbiological activity of compounds shown below are the microbiological activities of representative compounds of Formula II of the invention. The compounds were tested by the microbroth dilution method as per the reference in Example 1.

[3] = system: Streptococcus pneumoniae (ATCC 6301); experiment: MIC by microbroth dilution, Streptococcus pneumoniae ATCC 6301; conditions: ATCC6301
Protocol: as §1

[4] = system: Methicillin resistant Staphylococcus aureus (ATCC 33591); experiment: MIC by microbroth dilution, MRSA ATCC 33591
Protocol: as §2, §3

[5] = system: Moraxella catarrhalis (ATCC 8176); experiment: MIC by microbroth dilution, Moraxella catarrhalis ATCC 8176; conditions: ATCC8176
Protocol: as §1

E. coli (ATCC 25922) = experiment: MIC by microbroth dilution, E. coli ATCC 25922; conditions: Escherichia coli
Protocol: as §2, §3

[6] = system: Enterococcus faecalis (ATCC 29212); experiment: MIC by microbroth dilution, Enterococcus faecalis ATCC 29212; conditions: ATCC29212
Protocol: as §1

[7] = ATCC33591, Formula I compounds, read-out: MIC Methicillin resistant Staphylococcus aureus (ATCC 33591)
[8] = ATCC25922, Formula I compounds, read-out: MIC E. coli (ATCC 25922)
[9] = ATCC25922, Formula II compounds, read-out: Minimum Inhibitory Concentration (MIC) E. coli ATCC 25922

Compound	MIC [1]	MIC [2]	MIC [3]	MIC [4, 7]	MIC [5]	MIC (E. coli (ATCC 25922); [8])	MIC [6]	MIC (E. coli (ATCC 25922); [9])	MIC ([4]; Formula II compounds, read-out: Minimum Inhibitory Concentration (MIC) MRSA ATCC 33591)
COc1ccc2ncc(C#N)c(CCN3[C@@H]4CC[C@H]3CC(NCc3ccc(C)c([N+](=O)[O-])c3)C4)c2c1 (stereo partly shown) [VT-03-00069]	> 4 µg/mL			> 4 µg/mL		> 4 µg/mL			
COc1ccc2ncc(C#N)c(CCN3CCC(NCc4csc([N+](=O)[O-])n4)CC3)c2c1 [VT-03-00080]	0.25 µg/mL (≈ 0.552 µM)		2 µg/mL (≈ 4.42 µM)	1 µg/mL (≈ 2.21 µM)	> 4 µg/mL	32 µg/mL (≈ 70.7 µM)	4 µg/mL (≈ 8.84 µM)		
COc1ccc2ncc(C#N)c(CCN3CCC(NCc4ncc([N+](=O)[O-])[nH]4)CC3)c2c1 [VT-03-00078]	> 4 µg/mL					> 32 µg/mL			
COc1ccc2ncc(C#N)c(CCN3C4CCC3CC(NCc3ccc5c(c3)NC(=O)CS5)C4)c2c1 (stereo not shown) [VT-03-00026]	2 µg/mL (≈ 3.89 µM)	64 µg/mL (≈ 125 µM)	1 µg/mL (≈ 1.95 µM)	4 µg/mL (≈ 7.79 µM)	2 µg/mL (≈ 3.89 µM)	32 µg/mL (≈ 62.3 µM)	8 µg/mL (≈ 15.6 µM)		
COc1ccc2ncc(C#N)c(CCN3C4CCC3CC(NS(=O)(=O)c3ccc5ccccc5c3)C4)c2c1 (stereo not shown) [VT-03-00022]	1 µg/mL (≈ 1.9 µM)		2 µg/mL (≈ 3.8 µM)	2 µg/mL (≈ 3.8 µM)	4 µg/mL (≈ 7.6 µM)	> 64 µg/mL	4 µg/mL (≈ 7.6 µM)		
COc1ccc2ncc(C#N)c(CCN3CCC(NCc4cc([N+](=O)[O-])ccc4O)CC3)c2c1 [VT-03-00059]	0.25 µg/mL (≈ 0.542 µM)	> 32 µg/mL	2 µg/mL (≈ 4.33 µM)	1 µg/mL (≈ 2.17 µM)	8 µg/mL (≈ 17.3 µM)	> 32 µg/mL	8 µg/mL (≈ 17.3 µM)		
COc1ccc2ncc(C#N)c(N3CC(N4CCC(NCc5ccc6c(c5)OCCO6)CC4)C3)c2c1 [VT-03-00032]	2 µg/mL (≈ 4.12 µM)	> 32 µg/mL	4 µg/mL (≈ 8.24 µM)	4 µg/mL (≈ 8.24 µM)	8 µg/mL (≈ 16.5 µM)	> 32 µg/mL	8 µg/mL (≈ 16.5 µM)		
COc1ccc2ncc(C#N)c(CCN3C4CCC3CC(NCc3ccc5c(c3)NCCS5)C4)c2c1 (stereo not shown) [VT-03-00026a]	1 µg/mL (≈ 2 µM)		2 µg/mL (≈ 4 µM)	2 µg/mL (≈ 4 µM)	4 µg/mL (≈ 8.01 µM)	16 µg/mL (≈ 32 µM)	8 µg/mL (≈ 16 µM)		
COc1ccc2ncc(C#N)c(CCN3CCC(NCc4cc(C)cc([N+](=O)[O-])c4C)CC3)c2c1 [VT-03-00075]	0.12 µg/mL (≈ 0.253 µM)	> 16 µg/mL	0.06 µg/mL (≈ 0.127 µM)	0.12 µg/mL (≈ 0.253 µM)	0.5 µg/mL (≈ 1.06 µM)	4 µg/mL (≈ 8.45 µM)	0.5 µg/mL (≈ 1.06 µM)		
COc1ccc2ncc(C#N)c(CCN3C4CCC3CC(NC(=O)c3ccc5c(c3)OCCO5)C4)c2c1 (stereo not shown) [VT-03-00024]	1 µg/mL (≈ 2.01 µM)		2 µg/mL (≈ 4.01 µM)	2 µg/mL (≈ 4.01 µM)	8 µg/mL (≈ 16 µM)	> 32 µg/mL	8 µg/mL (≈ 16 µM)		
COc1ccc2ncc(C#N)c(CCN3CCC(NCc4ccc(O)c(OC)c4)CC3)c2c1 [VT-03-00046]	16 µg/mL (≈ 35.8 µM)			> 16 µg/mL		> 32 µg/mL			

Now from value to compound:

MIC [1]	MIC [2]	MIC [3]	MIC [4, 7]	MIC [5]	MIC (E. coli (ATCC 25922); [8])	MIC [6]	MIC (E. coli (ATCC 25922); [9])	MIC ([4]; Formula II compounds, read-out: Minimum Inhibitory Concentration (MIC) MRSA ATCC 33591)	Compound
0.25 µg/mL (≈ 0.561 µM)	> 32 µg/mL	4 µg/mL (≈ 8.98 µM)	1 µg/mL (≈ 2.24 µM)	> 32 µg/mL	> 32 µg/mL	> 32 µg/mL			Cc1ccc(CNC2CCN(CCn3c(=O)ccc4ccc(C#N)cc43)CC2)cc1[N+](=O)[O-] [VT-03-00065]
0.03 µg/mL (≈ 0.0647 µM)	32 µg/mL (≈ 69 µM)	0.5 µg/mL (≈ 1.08 µM)	0.12 µg/mL (≈ 0.259 µM)	1 µg/mL (≈ 2.16 µM)	8 µg/mL (≈ 17.3 µM)	2 µg/mL (≈ 4.31 µM)			COc1ccc2ncc(C#N)c(CCN3CCC(NCc4ccc([N+](=O)[O-])c(F)c4)CC3)c2c1 [VT-03-00054]
0.5 µg/mL (≈ 1.11 µM)	> 32 µg/mL	0.5 µg/mL (≈ 1.11 µM)	1 µg/mL (≈ 2.21 µM)	2 µg/mL (≈ 4.43 µM)	4 µg/mL (≈ 8.86 µM)	4 µg/mL (≈ 8.86 µM)			COc1ccc2ncc(OCCN3CCC(NCc4ccc(C)c([N+](=O)[O-])c4)CC3)nc2c1 [VT-03-00062a]
							8 µg/mL (≈ 17.1 µM)		COc1ccc2ncc(=O)n(CCN3CC[C@H](NCc4ccc(C)c([N+](=O)[O-])c4)[C@@H](O)C3)c2c1 [VT-03-00135]
> 4 µg/mL			> 4 µg/mL		> 4 µg/mL				COc1ccc2ncc(C#N)c(CCN3CCC(NCc4cc([N+](=O)[O-])c(C)cc4C)CC3)c2c1 [VT-03-00072]
0.12 µg/mL (≈ 0.269 µM)	> 32 µg/mL	0.5 µg/mL (≈ 1.12 µM)	0.5 µg/mL (≈ 1.12 µM)	8 µg/mL (≈ 18 µM)	32 µg/mL (≈ 71.8 µM)	2 µg/mL (≈ 4.49 µM)			COc1ccc2ncc(C#N)c(CCN3CCC(NCc4cccc([N+](=O)[O-])c4)CC3)c2c1 [VT-03-00049]
							2 µg/mL (≈ 4.73 µM)	0.125 µg/mL (≈ 0.296 µM)	CCc1ccc2ncc(=O)n(CCN3CCC(NCc4ccc(C)c(F)c4)CC3)c2c1 [VT-03-00112]
